Assay: Effect of acid addition on pH and available chlorine of urea-stabilized halogen-containing bactericide
Assay type: physicochemical
Details: for Solution pH / Available chlorine: final 30 ml; for Available chlorine: blank 2550
Description: Then, 5 beakers were provided and separately added with 1 ml of the prepared urea-stabilized halogen-containing bactericide. After that, 29 ml of water was added to the first beaker for dilution (blank control), while the other 4 beakers were separately added with 20% sulfuric acid (0.5 ml or 1.0 ml) or 20% citric acid (1.0 ml or 2.0 ml), and added with water to reach a final volume of 30 ml. Finally, pH values and available chlorine contents (ppm) of solutions in the 5 beakers were measured.
Further, 10% aminosulfonic acid (which was used to replace sulfuric acid or citric acid, which dosage was 1.1 ml or 1.24 ml) was used to repeat the above experiments. […] In addition, after aminosulfonic acid was added, pH values and available chlorine contents (ppm) in solutions were measured, and after standing for 40 min, 120 min, and 240 min, available chlorine contents (ppm) of solutions were measured again. […]

[1] = acid volume 0.5 ml to 1 ml urea-stabilized bactericide (12.5% hypochlorite)
[2] = acid volume 1.0 ml to 1 ml urea-stabilized bactericide (12.5% hypochlorite)
[3] = acid volume 2.0 ml to 1 ml urea-stabilized bactericide (12.5% hypochlorite)

| SMILES | Solution pH [1] | Available chlorine [1] | Solution pH [2] | Available chlorine [2] | Solution pH [3] | Available chlorine [3] | Solution pH after mixing (10% acid 1.1 ml to 1 ml urea-stabilized bactericide (8.5% hypochlorite)) | Available chlorine after mixing (10% acid 1.1 ml, 0 min) | Available chlorine after mixing (10% acid 1.1 ml, 40 min) | Available chlorine after mixing (10% acid 1.1 ml, 120 min) | Available chlorine after mixing (10% acid 1.1 ml, 240 min) | Solution pH after mixing (10% acid 1.24 ml to 1 ml urea-stabilized bactericide (8.5% hypochlorite)) | Available chlorine after mixing (10% acid 1.24 ml, 0 min) | Available chlorine after mixing (10% acid 1.24 ml, 40 min) | Available chlorine after mixing (10% acid 1.24 ml, 120 min) | Available chlorine after mixing (10% acid 1.24 ml, 240 min) | Time for which available chlorine content of solution is maintained (urea-stabilized bactericide with pH regulated by aminosulfonic acid) |
| --- | --- | --- | --- | --- | --- | --- | --- | --- | --- | --- | --- | --- | --- | --- | --- | --- | --- |
| O=S(=O)(O)O [20% sulfuric acid, sulfuric acid, reference compound] | 7.35 | 750 ppm | 2.15 | 455 ppm | – | – | – | – | – | – | – | – | – | – | – | – | – |
| O=C(O)CC(O)(CC(=O)O)C(=O)O [20% citric acid, citric acid, reference compound] | – | – | 7.75 | 1250 ppm | 3.65 | 725 ppm | – | – | – | – | – | – | – | – | – | – | – |
| NS(=O)(=O)O [Aminosulfonic acid, aminosulfonic acid] | – | – | – | – | – | – | 8.46 | 1275 ppm | 1275 ppm | 1325 ppm | 1400 ppm | 5.96 | 1300 ppm | 1325 ppm | 1475 ppm | 1250 ppm | at least 240 min |

Reference: US20170314205A1, “Microorganism Control System and Method of Using the Same” (Ecolab USA Inc., priority 2014, published 2017)
